Reference: patent US12540161B2, “Linkers” (BicycleTx Limited, priority 2020, dated 2026)

Assays:
in vitro = settings: for fold increase in half-life vs Cit-Val: 2 μM; for half-life at 2 μM: plasma
Experimental: Pooled frozen plasma was thawed in a water bath at 37° C. Plasma was centrifuged at 4000 rpm for 5 min and the clots were removed if any. The pH will be adjusted to 7.4±0.1 if required. 1 mM stock solution was prepared with DMSO. Propantheline (positive control) was prepared by making a 100 μM working solution by diluting 5 μL of the stock solution (10 mM) with 495 μL ultra pure water. 100 μM working solutions of test compounds were made up by diluting 10 μL of the stock solution (1 mM) with 90 μL DMSO. 98 μL of blank plasma was spiked with 2 μL of dosing solution (100 μM) to achieve 2 μM of the final concentration in duplicate and samples were incubated at 37° C. in a water bath. […] An aliquot of supernatant (150 μL) was transferred from each well before submitting for LC-MS/MS analysis.
The % remaining test compound after incubation in plasma was calculated using following equation: Remaining=100×(PAR at appointed incubation time/PAR at T0 time)
where PAR is the peak area ratio of analyte versus internal standard (IS).
The half-life (T½) was calculated from a log linear plot of concentration versus time.

Cathepsin B = Cathepsin B (Homo sapiens, UniProt P07858); assay: Cathepsin B (CatB) cleavage assay; assay type: biochemical; settings: for % Parent remaining after incubation with CatB, T = 1 h / % Parent remaining after incubation with CatB, T = 4 h / % Parent remaining after incubation with CatB, T = 24 h: norfloxacin linker compounds; for % Parent remaining after incubation with CatB, 0 h / % Parent remaining after incubation with CatB, 1 h / % Parent remaining after incubation with CatB, 2 h / % Parent remaining after incubation with CatB, 4 h / % Parent remaining after incubation with CatB, 6 h / % Parent remaining after incubation with CatB, 24 h / half-life at 40 μM: BTCs; for half-life at 40 μM: read-out: CatB t1/2 (converted)
Experimental: 15 μL of test compound solution (2 mM in DMSO) was added to the incubation plate in duplicate. 30 μL of Cathepsin B stock solution (16 μM) was pre-activated with 1500 μL activation buffer for 10 min at room temperature. The Cathepsin B solution was diluted in 13.17 mL water, then 735 μL activatived enzyme mixture was added to the incubation plate. The mixture was incubated at 37° C. in a waterbath. […] The samples were mixed and centrifuged at 4000 rpm for 20 min. 50 μL of supernatant was taken into a new plate containing 150 μL ultra-pure water and the samples mixed thoroughly before submitting to LC-MS/MS analysis.

[1] = pH 7.4, Mouse plasma t1/2 (EDTA), BTCs, EDTA anticoagulant

fold increase in half-life vs Cit-Val (in vitro; mouse, pH 7.4) [fold] | half-life at 2 μM (in vitro; mouse, pH 7.4) [h] | % Parent remaining after incubation with CatB, T = 1 h (Cathepsin B) [%] | % Parent remaining after incubation with CatB, T = 4 h (Cathepsin B) [%] | % Parent remaining after incubation with CatB, T = 24 h (Cathepsin B) [%] | Structure (SMILES) | half-life at 2 μM (in vitro; [1]) [h] | % Parent remaining after incubation with CatB, 0 h (Cathepsin B) [%] | % Parent remaining after incubation with CatB, 1 h (Cathepsin B) [%] | % Parent remaining after incubation with CatB, 2 h (Cathepsin B) [%] | % Parent remaining after incubation with CatB, 4 h (Cathepsin B) [%] | % Parent remaining after incubation with CatB, 6 h (Cathepsin B) [%] | % Parent remaining after incubation with CatB, 24 h (Cathepsin B) [%] | half-life at 40 μM (Cathepsin B) [h]
1.0 | 0.4 | 3 | 0 | 0 | CCn1cc(C(=O)O)c(=O)c2cc(F)c(N3CCN(C(=O)OCc4ccc(NC(=O)[C@H](CCCNC(N)=O)NC(=O)[C@@H](NC(=O)CCCC(=O)N(C)C)C(C)C)cc4)CC3)cc21 [BCY9422, reference compound] |  |  |  |  |  |  |  | 
6.0 | 2.4 | 0.6 | 0 | 0 | CCn1cc(C(=O)O)c(=O)c2cc(F)c(N3CCN(C(=O)OCc4ccc(NC(=O)[C@H](CCNC(=N)N)NC(=O)[C@@H](NC(=O)CCCC(=O)N(C)C)C(C)C)cc4)CC3)cc21 [BCY9423] |  |  |  |  |  |  |  | 
10.8 | 4.3 | 0.3 | 0 | 0 | CCn1cc(C(=O)O)c(=O)c2cc(F)c(N3CCN(C(=O)OCc4ccc(NC(=O)[C@H](CCN)NC(=O)[C@@H](NC(=O)CCCC(=O)N(C)C)C(C)C)cc4)CC3)cc21 [BCY9474] |  |  |  |  |  |  |  | 
6.3 | 2.5 | 0 | 0 | 0 | CCn1cc(C(=O)O)c(=O)c2cc(F)c(N3CCN(C(=O)OCc4ccc(NC(=O)[C@H](CCNC(=N)NC)NC(=O)[C@@H](NC(=O)CCCC(=O)N(C)C)C(C)C)cc4)CC3)cc21 [BCY9477] |  |  |  |  |  |  |  | 
6.5 | 2.6 | 92 | 63 | 6 | CCn1cc(C(=O)O)c(=O)c2cc(F)c(N3CCN(C(=O)OCc4ccc(NC(=O)[C@H](CN)NC(=O)[C@@H](NC(=O)CCCC(=O)N(C)C)C(C)C)cc4)CC3)cc21 [BCY10298] |  |  |  |  |  |  |  | 
3.4 | 1.4 | 72 | 10 | 0 | CCn1cc(C(=O)O)c(=O)c2cc(F)c(N3CCN(C(=O)OCc4ccc(NC(=O)[C@H](CNC(=N)N)NC(=O)[C@@H](NC(=O)CCCC(=O)N(C)C)C(C)C)cc4)CC3)cc21 [BCY10300] |  |  |  |  |  |  |  | 
 |  |  |  |  | CC[C@H](C)[C@@H]([C@@H](CC(=O)N1CCC[C@H]1[C@H](OC)[C@@H](C)C(=O)N[C@H](C)[C@@H](O)c1ccccc1)OC)N(C)C(=O)[C@@H](NC(=O)[C@H](C(C)C)N(C)C(=O)OCc1ccc(NC(=O)[C@H](CN)NC(=O)[C@@H](NC(=O)[C@H](CCC(=O)O)NC(=O)Cn2cc(CCC(=O)NCCC(=O)N(C)CC(=O)N(C)CC(=O)N(C)CC(=O)N(C)CC(=O)N(C)CC(=O)N(C)CC(=O)N(C)CC(=O)N(C)CC(=O)N(C)CC(=O)N(C)CC(=O)N[C@@H](C)C(=O)N[C@H]3CN(C)Cc4cc5cc(c4)CN(C)C[C@@H](C(N)=O)NC(=O)[C@H](C(C)(C)C)NC(=O)[C@H](CC(=O)O)NC(=O)[C@H](Cc4ccc(O)cc4)NC(=O)[C@H](Cc4ccccc4)NC(=O)[C@H](CC(=O)O)NC(=O)[C@H](CCC(=O)O)NC(=O)[C@H](CSC5)NC(=O)[C@@H](C)NC(=O)[C@H](Cc4cccc5ccccc45)NC(=O)[C@H](CCC(=O)O)NC(=O)[C@H](CC(N)=O)NC(=O)[C@@H](C)NC3=O)nn2)C(C)C)cc1)C(C)C [BCY10982, MMAE-PAB-(Dap-Val-Glu)-BCY3900] | 55.9 | 100 | 85.435 | 82.3 | 73.1 | 72.3 | 73.91 | > 57.8
 |  |  |  |  | CC[C@H](C)[C@@H]([C@@H](CC(=O)N1CCC[C@H]1[C@H](OC)[C@@H](C)C(=O)N[C@H](C)[C@@H](O)c1ccccc1)OC)N(C)C(=O)[C@@H](NC(=O)[C@H](C(C)C)N(C)C(=O)OCc1ccc(NC(=O)[C@H](CCN)NC(=O)[C@@H](NC(=O)[C@H](CCC(=O)O)NC(=O)Cn2cc(CCC(=O)NCCC(=O)N(C)CC(=O)N(C)CC(=O)N(C)CC(=O)N(C)CC(=O)N(C)CC(=O)N(C)CC(=O)N(C)CC(=O)N(C)CC(=O)N(C)CC(=O)N(C)CC(=O)N[C@@H](C)C(=O)N[C@H]3CN(C)Cc4cc5cc(c4)CN(C)C[C@@H](C(N)=O)NC(=O)[C@H](C(C)(C)C)NC(=O)[C@H](CC(=O)O)NC(=O)[C@H](Cc4ccc(O)cc4)NC(=O)[C@H](Cc4ccccc4)NC(=O)[C@H](CC(=O)O)NC(=O)[C@H](CCC(=O)O)NC(=O)[C@H](CSC5)NC(=O)[C@@H](C)NC(=O)[C@H](Cc4cccc5ccccc45)NC(=O)[C@H](CCC(=O)O)NC(=O)[C@H](CC(N)=O)NC(=O)[C@@H](C)NC3=O)nn2)C(c2ccccc2)c2ccccc2)cc1)C(C)C [BCY10987, MMAE-PAB-(Dab-Dpa-Glu)-BCY3900] | > 57.8 | 100 | 104.27 | 90.6 | 90.2 | 94 | 91.48 | > 57.8
 |  |  |  |  | CC[C@H](C)[C@@H]([C@@H](CC(=O)N1CCC[C@H]1[C@H](OC)[C@@H](C)C(=O)N[C@H](C)[C@@H](O)c1ccccc1)OC)N(C)C(=O)[C@@H](NC(=O)[C@H](C(C)C)N(C)C(=O)OCc1ccc(NC(=O)[C@H](CCN)NC(=O)C2(NC(=O)[C@H](CCC(=O)O)NC(=O)Cn3cc(CCC(=O)NCCC(=O)N(C)CC(=O)N(C)CC(=O)N(C)CC(=O)N(C)CC(=O)N(C)CC(=O)N(C)CC(=O)N(C)CC(=O)N(C)CC(=O)N(C)CC(=O)N(C)CC(=O)N[C@@H](C)C(=O)N[C@H]4CN(C)Cc5cc6cc(c5)CN(C)C[C@@H](C(N)=O)NC(=O)[C@H](C(C)(C)C)NC(=O)[C@H](CC(=O)O)NC(=O)[C@H](Cc5ccc(O)cc5)NC(=O)[C@H](Cc5ccccc5)NC(=O)[C@H](CC(=O)O)NC(=O)[C@H](CCC(=O)O)NC(=O)[C@H](CSC6)NC(=O)[C@@H](C)NC(=O)[C@H](Cc5cccc6ccccc56)NC(=O)[C@H](CCC(=O)O)NC(=O)[C@H](CC(N)=O)NC(=O)[C@@H](C)NC4=O)nn3)CCC2)cc1)C(C)C [BCY10988, MMAE-PAB-(Dab-cBu-Glu)-BCY3900] | > 57.8 | 100 | 109.88 | 119 | 110 | 105 | 111 | > 57.8

Structure (SMILES) | fold increase in half-life vs Cit-Val (in vitro; mouse, pH 7.4) [fold] | half-life at 2 μM (in vitro; mouse, pH 7.4) [h] | % Parent remaining after incubation with CatB, T = 1 h (Cathepsin B) [%] | % Parent remaining after incubation with CatB, T = 4 h (Cathepsin B) [%] | % Parent remaining after incubation with CatB, T = 24 h (Cathepsin B) [%] | half-life at 2 μM (in vitro; [1]) [h] | % Parent remaining after incubation with CatB, 0 h (Cathepsin B) [%] | % Parent remaining after incubation with CatB, 1 h (Cathepsin B) [%] | % Parent remaining after incubation with CatB, 2 h (Cathepsin B) [%] | % Parent remaining after incubation with CatB, 4 h (Cathepsin B) [%] | % Parent remaining after incubation with CatB, 6 h (Cathepsin B) [%] | % Parent remaining after incubation with CatB, 24 h (Cathepsin B) [%] | half-life at 40 μM (Cathepsin B) [h]
CCn1cc(C(=O)O)c(=O)c2cc(F)c(N3CCN(C(=O)OCc4ccc(NC(=O)[C@H](CCNC(=N)N)NC(=O)[C@@H](NC(=O)[C@H](CCC(=O)O)NC(=O)CCCC(=O)N(C)C)C(C)C)cc4)CC3)cc21 [BCY9695] | 34.1 | 14.3 | 0 | 0 | 0 |  |  |  |  |  |  |  | 
CCn1cc(C(=O)O)c(=O)c2cc(F)c(N3CCN(C(=O)OCc4ccc(NC(=O)[C@H](CCCNC(N)=O)NC(=O)[C@@H](NC(=O)[C@H](CCC(=O)O)NC(=O)CCCC(=O)N(C)C)C(C)C)cc4)CC3)cc21 [BCY9696] | 25.1 | 10.8 | 0 | 0 | 0 |  |  |  |  |  |  |  | 
CCn1cc(C(=O)O)c(=O)c2cc(F)c(N3CCN(C(=O)OCc4ccc(NC(=O)[C@H](CCN)NC(=O)[C@@H](NC(=O)[C@H](CCC(=O)O)NC(=O)CCCC(=O)N(C)C)C(C)C)cc4)CC3)cc21 [BCY10122] | 107.5 | 39 | 0 | 0 | 0 |  |  |  |  |  |  |  | 
CCn1cc(C(=O)O)c(=O)c2cc(F)c(N3CCN(C(=O)OCc4ccc(NC(=O)[C@H](CN)NC(=O)[C@@H](NC(=O)[C@H](CCC(=O)O)NC(=O)CCCC(=O)N(C)C)C(C)C)cc4)CC3)cc21 [BCY10297] | 19.3 | 15.5 | 75 | 15 | 0 |  |  |  |  |  |  |  | 
